Source: paper PMC7576618 (British Journal of Clinical Pharmacology, 2020)
Marks after values point to notes of the source that are not given here.

Legend:
[1] = SAD study: plasma pharmacokinetics after single oral TS-134; format: in vivo, human; conditions: for AUC0‐inf, mean (CV[%]) / Cmax, mean (CV[%]) / t1/2, mean (CV[%]) / tmax, median: plasma
[2] = compared with monkeys; cited from earlier work
[3] = MAD study: plasma pharmacokinetics after multiple oral dose titration of TS-134; format: in vivo, human; conditions: for AUC0‐tau, mean (CV[%]) / Cmax, mean (CV[%]) / t1/2, mean (CV[%]) / tmax, median: plasma, MAD Day 14, fed
[4] = SAD Parts A and C, 5 mg fasted (n = 6)
[5] = SAD Parts A and C, 10 mg fasted (n = 4)
[6] = SAD Parts A and C, 10 mg fed (n = 3)
[7] = SAD Parts A and C, 20 mg fasted (n = 3)
[8] = SAD Parts A and C, 20 mg fed (n = 3)

Q: For `CC(C)[C@@H]1CC[C@@H](C)C[C@H]1OC(=O)O[C@@H](C)OC(=O)[C@H]1[C@@H]2C[C@H](F)[C@@](N)(C(=O)O)[C@@H]21` [MGS0274], which “reduction of plasma AUC in the fed group (food effect)” value ([1]; SAD, 10 and 20 mg TS‐134) is on record?
A: almost no food effect

Q: And the “reduction of plasma Cmax in the fed group (food effect)” value ([1]; SAD, 10 and 20 mg TS‐134)?
A: up to 45%

Q: What about the “plasma AUC of MGS0274 as share of the AUC of MGS0008” value ([1]; molar ratio, single and multiple oral administration, all treatment groups) of the same molecule?
A: approximately 3%

Q: And the “AUC0‐inf, mean (CV[%])” value ([1]; SAD Part B, 10 mg fed (n = 6))?
A: 36.47 ^e (61.58) h•ng mL^−1

Q: What about the “Cmax, mean (CV[%])” value ([1]; SAD Part B, 10 mg fed (n = 7)) of the same molecule?
A: 13.00 (82.69) ng mL^−1

Q: What about the “t1/2, mean (CV[%])” value ([1]; SAD Part B, 10 mg fed (n = 7)) of the same molecule?
A: 1.377 ^e (26.45) h

Q: And the “tmax, median” value ([1]; SAD Part B, 10 mg fed (n = 7))?
A: 30 min

Q: What about the “AUC0‐inf, mean (CV[%])” value [1, 4] of the same molecule?
A: 23.94 ^c (30.64) h•ng mL^−1

Q: And the “Cmax, mean (CV[%])” value [1, 4]?
A: 13.43 (55.44) ng mL^−1

Q: And the “t1/2, mean (CV[%])” value [1, 4]?
A: 1.013 ^c (35.22) h

Q: What about the “tmax, median” value [1, 4] of the same molecule?
A: 30 min

Q: What about the “AUC0‐inf, mean (CV[%])” value [1, 5] of the same molecule?
A: 29.33 (31.92) h•ng mL^−1

Q: And the “Cmax, mean (CV[%])” value [1, 5]?
A: 17.88 (40.87) ng mL^−1

Q: And the “t1/2, mean (CV[%])” value [1, 5]?
A: 0.8765 (17.66) h

Q: What about the “tmax, median” value [1, 5] of the same molecule?
A: 60 min

Q: What about the “AUC0‐inf, mean (CV[%])” value [1, 6] of the same molecule?
A: 22.69 (8.60) h•ng mL^−1

Q: And the “Cmax, mean (CV[%])” value [1, 6]?
A: 8.137 (16.40) ng mL^−1

Q: And the “t1/2, mean (CV[%])” value [1, 6]?
A: 1.505 (7.14) h

Q: And the “tmax, median” value [1, 6]?
A: 15 min

Q: What about the “AUC0‐inf, mean (CV[%])” value [1, 7] of the same molecule?
A: 72.09 (50.40) h•ng mL^−1

Q: What about the “Cmax, mean (CV[%])” value [1, 7] of the same molecule?
A: 49.07 (66.56) ng mL^−1

Q: What about the “t1/2, mean (CV[%])” value [1, 7] of the same molecule?
A: 1.477 (14.30) h

Q: And the “tmax, median” value [1, 7]?
A: 15 min

Q: What about the “AUC0‐inf, mean (CV[%])” value [1, 8] of the same molecule?
A: 84.30 ^d (16.80) h•ng mL^−1

Q: What about the “Cmax, mean (CV[%])” value [1, 8] of the same molecule?
A: 33.27 (45.09) ng mL^−1

Q: And the “t1/2, mean (CV[%])” value [1, 8]?
A: 1.669 ^d (7.05) h

Q: And the “tmax, median” value [1, 8]?
A: 30 min

Q: And the “hydrolytic activity against MGS0274 in the human liver S9 fraction” value [2]?
A: comparable to that in monkeys

Q: And the “dose proportionality of steady‐state plasma Cmax and AUC” value ([3]; MAD, 5–80 mg)?
A: dose proportional increases

Q: What about the “AUC0‐tau, mean (CV[%])” value ([3]; 5 mg (n = 8)) of the same molecule?
A: 14.90 (37.92) h•ng mL^−1

Q: What about the “Cmax, mean (CV[%])” value ([3]; 5 mg (n = 8)) of the same molecule?
A: 6.090 (79.22) ng mL^−1

Q: What about the “t1/2, mean (CV[%])” value ([3]; 5 mg (n = 8)) of the same molecule?
A: 1.247 (40.98) h

Q: What about the “tmax, median” value ([3]; 5 mg (n = 8)) of the same molecule?
A: 60 min

Q: And the “AUC0‐tau, mean (CV[%])” value ([3]; 10 mg (n = 8))?
A: 29.40 (23.81) h•ng mL^−1

Q: And the “Cmax, mean (CV[%])” value ([3]; 10 mg (n = 8))?
A: 13.91 (51.77) ng mL^−1

Q: What about the “t1/2, mean (CV[%])” value ([3]; 10 mg (n = 8)) of the same molecule?
A: 1.212 (35.09) h

Q: And the “tmax, median” value ([3]; 10 mg (n = 8))?
A: 30 min

Q: What about the “AUC0‐tau, mean (CV[%])” value ([3]; 20 mg (n = 8)) of the same molecule?
A: 56.36 (48.86) h•ng mL^−1

Q: What about the “Cmax, mean (CV[%])” value ([3]; 20 mg (n = 8)) of the same molecule?
A: 26.92 (66.42) ng mL^−1

Q: What about the “t1/2, mean (CV[%])” value ([3]; 20 mg (n = 8)) of the same molecule?
A: 1.567 (39.16) h

Q: And the “tmax, median” value ([3]; 20 mg (n = 8))?
A: 30 min

Q: And the “AUC0‐tau, mean (CV[%])” value ([3]; 40 mg (n = 8))?
A: 122.0 (29.47) h•ng mL^−1

Q: What about the “Cmax, mean (CV[%])” value ([3]; 40 mg (n = 8)) of the same molecule?
A: 40.38 (29.69) ng mL^−1

Q: What about the “t1/2, mean (CV[%])” value ([3]; 40 mg (n = 8)) of the same molecule?
A: 4.711 (52.68) h

Q: What about the “tmax, median” value ([3]; 40 mg (n = 8)) of the same molecule?
A: 60 min

Q: What about the “AUC0‐tau, mean (CV[%])” value ([3]; 60 mg (n = 8)) of the same molecule?
A: 170.0 (23.85) h•ng mL^−1

Q: And the “Cmax, mean (CV[%])” value ([3]; 60 mg (n = 8))?
A: 95.14 (42.43) ng mL^−1

Q: What about the “t1/2, mean (CV[%])” value ([3]; 60 mg (n = 8)) of the same molecule?
A: 7.549 (93.72) h

Q: And the “tmax, median” value ([3]; 60 mg (n = 8))?
A: 60 min

Q: What about the “AUC0‐tau, mean (CV[%])” value ([3]; 80 mg Cohort 5 (n = 7)) of the same molecule?
A: 142.0 (19.40) h•ng mL^−1

Q: What about the “Cmax, mean (CV[%])” value ([3]; 80 mg Cohort 5 (n = 7)) of the same molecule?
A: 85.27 (43.68) ng mL^−1

Q: What about the “t1/2, mean (CV[%])” value ([3]; 80 mg Cohort 5 (n = 7)) of the same molecule?
A: 10.52 (57.99) h

Q: What about the “tmax, median” value ([3]; 80 mg Cohort 5 (n = 7)) of the same molecule?
A: 60 min

Q: And the “AUC0‐tau, mean (CV[%])” value ([3]; 80 mg Cohort 6 (n = 6))?
A: 203.9 (24.30) h•ng mL^−1

Q: And the “Cmax, mean (CV[%])” value ([3]; 80 mg Cohort 6 (n = 6))?
A: 98.55 (37.09) ng mL^−1

Q: And the “t1/2, mean (CV[%])” value ([3]; 80 mg Cohort 6 (n = 6))?
A: 6.810 (23.98) h

Q: What about the “tmax, median” value ([3]; 80 mg Cohort 6 (n = 6)) of the same molecule?
A: 30 min
